Source: ChEMBL document CHEMBL5131493, “Synthesis and evaluation of RNase L-binding 2-aminothiophenes as anticancer agents” (Bioorg Med Chem, 2022)

How the values were obtained:
JAR [1] = assay: Antiproliferative activity against human JAR cells assessed as cell growth inhibition at 10 uM incubated for 72 hrs by MTT assay relative to control; format: functional
A549 [2] = assay: Antiproliferative activity against human A549 cells assessed as cell growth inhibition at 10 uM incubated for 72 hrs by MTT assay relative to control; format: functional
MCF7 [3] = assay: Antiproliferative activity against human MCF7 cells assessed as cell growth inhibition at 10 uM incubated for 72 hrs by MTT assay relative to control; format: functional
Homo sapiens = species: Homo sapiens; assay: Binding affinity to RNase L (unknown origin) expressed in Escherichia coli BL21 (DE3) assessed as thermal stability by measuring melting temperature at 60 uM incubated for 50 mins by NanoDSF analysis
K562 [4] = assay: Antiproliferative activity against human K562 cells assessed as cell growth inhibition at 10 uM incubated for 72 hrs by MTT assay relative to control; format: functional
A549 [5] = assay: Antiproliferative activity against human A549 cells assessed as cell growth inhibition incubated for 72 hrs by MTT assay; format: functional, cell-based; conditions: A549, 72 h
JAR [6] = assay: Antiproliferative activity against human JAR cells assessed as cell growth inhibition incubated for 72 hrs by MTT assay; format: functional, cell-based
K562 [7] = assay: Antiproliferative activity against human K562 cells assessed as cell growth inhibition incubated for 72 hrs by MTT assay; format: functional, cell-based; conditions: K562, 72 h
MCF7 [8] = assay: Antiproliferative activity against human MCF7 cells assessed as cell growth inhibition incubated for 72 hrs by MTT assay; format: functional, cell-based; conditions: MCF7, 72 h

Compound | inhibition at 10 µM (JAR [1]) [%] | inhibition at 10 µM (A549 [2]) [%] | inhibition at 10 µM (MCF7 [3]) [%] | ΔTm (Homo sapiens) [°C] | inhibition at 10 µM (K562 [4]) [%] | IC50 (A549 [5]) [µM] | IC50 (JAR [6]) [µM] | IC50 (K562 [7]) [µM] | IC50 (MCF7 [8]) [µM]
CCOC(=O)C1=C(Nc2ccccc2)S/C(=C\c2cc3cnccc3[nH]2)C1=O | < 10 |  |  |  |  |  |  |  | 
CCOC(=O)C1=C(Nc2ccccc2)S/C(=C\c2cc(OC)ccc2OC)C1=O | 38.1 | < 10 | < 10 | 0.5 | 30.7 |  |  |  | 
CCOC(=O)C1=C(Nc2ccccc2)S/C(=C\c2cc3ncccc3[nH]2)C1=O | 74.8 |  | 42.2 |  |  | 13.6 | 9.6 | 6.6 | 
CCOC(=O)C1=C(Nc2ccccc2)S/C(=C\c2cccc(C(=O)O)c2)C1=O | 50.6 | < 10 | < 10 |  |  |  | 11.7 | 16.2 | 
CCOC(=O)C1=C(Nc2ccc(Br)cc2)S/C(=C\c2ccc[nH]2)C1=O | 41.5 | < 10 | < 10 |  | 17 |  | 27 |  | 
CCOC(=O)C1=C(Nc2ccccc2)S/C(=C\c2ccc(C(F)(F)F)cc2)C1=O | 68.7 |  | 41.3 | 0.8 |  | 9.8 | 5.9 | 7 | 13.7
CCOC(=O)C1=C(Nc2ccc([N+](=O)[O-])cc2)S/C(=C\c2ccc[nH]2)C1=O | 54.9 |  |  |  |  |  | 15.6 | > 100 | 
CCOC(=O)C1=C(Nc2ccc(F)cc2)S/C(=C\c2ccc[nH]2)C1=O | 61.5 | < 10 | < 10 |  |  |  | 15.9 | > 100 | 
CCOC(=O)C1=C(Nc2ccccc2)S/C(=C\c2cccc(O)c2)C1=O | 51.9 | 30.6 | 24.1 | 0.5 |  |  | 17 | 38.7 | 
CN1CCN(c2cc3c(cc2[N+](=O)[O-])-c2c(cnn2-c2ccc(C(=O)O)cc2)C(C)(C)O3)CC1 | 53.5 |  |  |  |  | > 100 | 9.3 | 16.5 | 
CCOC(=O)C1=C(Nc2ccccc2)S/C(=C\c2c[nH]c3ccccc23)C1=O | 57.6 | 19.8 | 25 |  |  |  | 14.1 | > 100 | 
CCOC(=O)C1=C(Nc2ccccc2)S/C(=C\c2ccccc2)C1=O | 20.3 | 29.6 | 23.6 | 0.8 | 42.9 |  |  |  | 
CCOC(=O)C1=C(Nc2ccccc2)S/C(=C\c2cc3cccnc3[nH]2)C1=O | 54.3 | 16.7 | 18.2 |  |  |  | 14.4 | > 100 | 
CCOC(=O)C1=C(Nc2ccccc2)S/C(=C\c2ccc(O)c(O)c2)C1=O | 48.7 | 30.7 | 38.1 |  |  | > 100 | 6.1 | 5.2 | 25.2
CCOC(=O)C1=C(Nc2ccccc2)S/C(=C\c2ccc(C(=O)O)cc2)C1=O | 16.8 | 11.6 | < 10 |  | 27.5 |  |  |  | 
CCOC(=O)C1=C(Nc2ccccc2)S/C(=C\c2ccc([N+](=O)[O-])c(O)c2)C1=O | 51.2 |  | 41.5 |  |  | 19.1 | 12.7 | 12.7 | 
CCOC(=O)C1=C(Nc2cccc([N+](=O)[O-])c2)S/C(=C\c2ccc[nH]2)C1=O | 57.4 |  | 27.4 |  |  | 23.9 | 10.1 | 7.2 | 20.7
CCOC(=O)C1=C(Nc2ccc(CC)cc2)S/C(=C\c2ccc[nH]2)C1=O | < 10 | 17.5 |  |  |  |  |  |  | 
CCOC(=O)C1=C(Nc2ccccc2)S/C(=C\c2cc[nH]c2)C1=O | 19.5 | < 10 | < 10 |  | 18.9 |  |  |  | 

Compound | inhibition at 10 µM (JAR [1]) [%] | inhibition at 10 µM (A549 [2]) [%] | inhibition at 10 µM (MCF7 [3]) [%] | ΔTm (Homo sapiens) [°C] | inhibition at 10 µM (K562 [4]) [%] | IC50 (A549 [5]) [µM] | IC50 (JAR [6]) [µM] | IC50 (K562 [7]) [µM] | IC50 (MCF7 [8]) [µM]
CCOC(=O)C1=C(Nc2cccc(F)c2)S/C(=C\c2ccc[nH]2)C1=O | 45.4 | < 10 | < 10 |  |  |  | 22.6 | > 100 | 
CCOC(=O)C1=C(Nc2ccccc2)S/C(=C\c2ccc(Br)c(O)c2)C1=O | 39.8 | 13.6 | 16.4 |  | 22 |  |  |  | 
CCOC(=O)C1=C(Nc2ccccc2)S/C(=C\c2cccnc2)C1=O | 32.1 | < 10 | < 10 | 1 | < 10 |  |  |  | 
CCOC(=O)C1=C(Nc2ccccc2)S/C(=C\c2cc(OC)c(O)c(OC)c2)C1=O | 57.5 | 19.2 | 12.9 |  |  | 19.2 | 17.4 | 31.7 | 
CCOC(=O)C1=C(Nc2ccccc2)S/C(=C\c2ccc(OC)cc2)C1=O | 32.9 | 17.5 | 14.7 |  | 9.6 |  |  |  | 
CCOC(=O)C1=C(Nc2ccc(OC)cc2)S/C(=C\c2ccc[nH]2)C1=O | 27.6 | < 10 | < 10 |  |  |  |  |  | 
CCOC(=O)C1=C(Nc2ccccc2)SC(=C2CCCCC2)C1=O | 15.5 |  |  | 0.7 | 18.7 |  |  |  | 
CCOC(=O)C1=C(Nc2ccccc2)S/C(=C\c2ccccc2C(F)(F)F)C1=O | 29 | < 10 | < 10 | 0.8 | 19.7 |  |  |  | 
CCOC(=O)C1=C(Nc2ccccc2)S/C(=C2\CCN(C(=O)OC(C)(C)C)C2)C1=O |  |  | 33.8 | 0.5 |  | 47 | 37 | 11.6 | 
CCOC(=O)C1=C(Nc2ccc(C)cc2)S/C(=C\c2ccc[nH]2)C1=O | < 10 | 20.9 | < 10 |  |  |  |  |  | 
CCOC(=O)C1=C(Nc2ccc(OC)c(OC)c2)S/C(=C\c2ccc[nH]2)C1=O | 47.9 |  |  |  |  |  |  |  | 
CCOC(=O)C1=C(Nc2ccccc2)SC(=C2CCN(C)CC2)C1=O | < 10 | < 10 | < 10 |  |  |  |  |  | 
CCOC(=O)C1=C(Nc2ccccc2)S/C(=C\c2ccccc2O)C1=O | 89.4 |  |  |  |  | 16.9 | 8 | 8.8 | 15.1
CCOC(=O)C1=C(Nc2ccc(C(F)(F)F)cc2)S/C(=C\c2ccc[nH]2)C1=O | 38.5 | 30.1 | 19.1 |  |  |  | 46.8 |  | 
CCOC(=O)C1=C(Nc2cccc(C(F)(F)F)c2)S/C(=C\c2ccc[nH]2)C1=O | 52.9 | 22.8 | 22.9 |  |  |  | 19.7 | > 100 | 
CCOC(=O)C1=C(Nc2ccccc2)S/C(=C\c2ccc(OC)c(O)c2)C1=O |  | 11 |  | 0.6 |  |  |  |  | 
CCOC(=O)C1=C(Nc2ccccc2)S/C(=C\c2cc3ccncc3[nH]2)C1=O | 26.3 | 17.1 | 18.2 |  | 22.8 |  |  |  | 
CCOC(=O)C1=C(Nc2ccccc2)SC(=C2CN(C(=O)OC(C)(C)C)C2)C1=O |  |  | 29.6 | 0.5 |  | 35.8 | 23.2 | 10.7 | 
